The term IC50 denotes the concentration at which inhibition is half-maximal.

The subject of one test is DLD1-WRN-KO cells. The test can be described thus: Proliferation assay DLD1-WRN-KO (CellTiterGlo, 96 hours; off-target effects). The following applies: Homo sapiens, read-out: Proliferation Assay DLD1-WRN-KO (GI50).
A further test relates to SW48 cells. The test can be described thus: Proliferation assay SW48 (CellTiterGlo, 96 hours). The conditions noted are these: Homo sapiens, SW48, read-out: Proliferation Assay SW48 (GI50). (In general: In ATP-based viability assays light output follows the ATP content of the culture.)
In another test the target is WRN helicase (Homo sapiens (Human), UniProt Q14191). The test can be described thus: In vitro enzymatic activity assay on WRN helicase (DNA dependent ATPase assay, ADP-Glo). It counts as biochemical. The conditions noted are these: geometric means of at least 2 determinations; read-out: WRN ATPase Activity (IC50). Put shortly:
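The WRN helicase core (aa N517-P1238), 10 nM, hydrolysed 300 µM ATP in the presence of 0.2 nM FLAP26 DNA (Tris pH 7.5, 2 mM MgCl2, 50 mM NaCl) for 30 min at room temperature. ADP formed was quantified by ADP-Glo luminescence.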

Sequence of WRN helicase (Q14191 517-1238): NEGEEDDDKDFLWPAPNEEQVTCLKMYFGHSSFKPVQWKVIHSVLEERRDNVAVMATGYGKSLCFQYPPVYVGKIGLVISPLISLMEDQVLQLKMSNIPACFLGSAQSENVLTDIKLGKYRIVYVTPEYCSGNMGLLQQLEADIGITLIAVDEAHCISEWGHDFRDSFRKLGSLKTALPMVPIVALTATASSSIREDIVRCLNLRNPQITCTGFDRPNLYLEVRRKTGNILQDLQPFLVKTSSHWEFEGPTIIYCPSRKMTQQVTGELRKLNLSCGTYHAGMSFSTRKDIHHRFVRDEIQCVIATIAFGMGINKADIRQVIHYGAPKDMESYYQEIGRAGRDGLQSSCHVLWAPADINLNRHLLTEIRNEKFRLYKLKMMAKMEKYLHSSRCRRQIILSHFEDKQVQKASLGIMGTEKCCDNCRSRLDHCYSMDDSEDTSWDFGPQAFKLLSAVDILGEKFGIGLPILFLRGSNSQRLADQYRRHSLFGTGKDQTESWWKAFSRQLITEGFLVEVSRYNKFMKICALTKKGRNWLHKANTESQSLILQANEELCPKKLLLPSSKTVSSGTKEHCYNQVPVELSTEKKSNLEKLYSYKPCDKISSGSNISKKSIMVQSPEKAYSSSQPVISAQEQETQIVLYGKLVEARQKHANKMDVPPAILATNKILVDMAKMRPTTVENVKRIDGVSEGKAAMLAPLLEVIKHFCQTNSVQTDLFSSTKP
Experimental for DLD1-WRN-KO cells: The WRN-knockdown insensitive colon carcinoma cell line DLD-1 (RRID: CVCL_0248) was obtained from the Korean Cell Line Bank (KCLB), and used to generate a derivative in which the endogenous WRN gene copies were knocked out by CRISPR-mediated editing using standard CRISPR methods. The resulting cell line, DLD1-WRN—KO, was used to assess potential off-target compound effects.
All cells were maintained at 37° C. in a humidified 5% CO2 incubator.
For data analysis, the assay background signal that was determined in wells containing medium, but no cells, was subtracted from all other data points prior to further calculations. The extent of growth inhibition and potential cell kill was assessed by comparing the ATP levels (measured using CellTiterGlo, Promega) in compound-treated cells with those present at the time of compound addition. […] 100%, 0% and −100% signify absence of growth inhibition, growth stasis, and complete cell kill, respectively. Compound concentrations leading to half-maximal growth inhibition (G150) and residual cell viability at the highest tested compound concentration (Data (cmax), expressed in percent) were routinely calculated. Data analysis can also be carried out using commercially available software designed to derive IC50 values using 4-parameter fits (e.g. GraphPad Prism, XL fit). The reported GI50 values are the geometrical means of at least 2 independent replicates.

In the case of `CCc1c(N2CCN(C(=O)c3ncc(Cl)cc3O)CC2)c(=O)n2nc(C3=CCOCC3)nc2n1CC(=O)Nc1ccc(C(F)(F)F)cc1C` [Example 65, 2-(6-(4-(5-chloro-3-hydroxypicolinoyl)piperazin-1-yl)-2-(3,6-dihydro-2H-pyran-4-yl)-5-ethyl-7-oxo-[1,2,4]triazolo[1,5-a]pyrimidin-4(7H)-yl)-N-(2-methyl-4-(trifluoromethyl)phenyl)acetamide], the GI50 in the test on DLD1-WRN-KO cells came out at 7800 nM; in the test on SW48 cells, 80 nM. In addition, the IC50 at WRN helicase stood at 50 nM.
In the case of `CCc1c(N2CCN(C(=O)c3nccc(C)c3O)CC2)c(=O)n2nc(C3=CCOCC3)nc2n1CC(=O)Nc1ccc(C(F)(F)F)cc1C` [Example 66, 2-(2-(3,6-dihydro-2H-pyran-4-yl)-5-ethyl-6-(4-(3-hydroxy-4-methylpicolinoyl)piperazin-1-yl)-7-oxo-[1,2,4]triazolo[1,5-a]pyrimidin-4(7H)-yl)-N-(2-methyl-4-(trifluoromethyl)phenyl)acetamide], the GI50 in the test with DLD1-WRN-KO cells was greater than 10000 nM; with SW48 cells, 90 nM. The IC50 on WRN helicase turned out to be 40 nM.
In the same order, the values of `CCc1c(N2CCN(C(=O)c3nccc(OC(F)(F)F)c3O)CC2)c(=O)n2nc(C3=CCOCC3)nc2n1CC(=O)Nc1ccc(C(F)(F)F)cc1C` [Example 67, 2-(2-(3,6-dihydro-2H-pyran-4-yl)-5-ethyl-6-(4-(3-hydroxy-4-(trifluoromethoxy)picolinoyl)piperazin-1-yl)-7-oxo-[1,2,4]triazolo[1,5-a]pyrimidin-4(7H)-yl)-N-(2-methyl-4-(trifluoromethyl)phenyl)acetamide] are greater than 10000 nM, 190 nM and 150 nM.
In the same order, the values of `CCc1c(N2CCN(C(=O)c3nc(C)ncc3O)CC2)c(=O)n2nc(C3=CCOCC3)nc2n1CC(=O)Nc1ccc(C(F)(F)F)cc1C` [Example 68, 2-(2-(3,6-dihydro-2H-pyran-4-yl)-5-ethyl-6-(4-(5-hydroxy-2-methylpyrimidine-4-carbonyl)piperazin-1-yl)-7-oxo-[1,2,4]triazolo[1,5-a]pyrimidin-4(7H)-yl)-N-(2-methyl-4-(trifluoromethyl)phenyl)acetamide] are greater than 10000 nM, 270 nM and 120 nM.
As to `CCc1c(N2CCN(C(=O)c3ncccc3O)CC2)c(=O)n2nc(C3=CCOCC3)nc2n1CC(=O)Nc1cc(Cl)c(C(F)(F)F)cc1C` [Example 69, N-(5-chloro-2-methyl-4-(trifluoromethyl)phenyl)-2-(2-(3,6-dihydro-2H-pyran-4-yl)-5-ethyl-6-(4-(3-hydroxypicolinoyl)piperazin-1-yl)-7-oxo-[1,2,4]triazolo[1,5-a]pyrimidin-4(7H)-yl)acetamide], the values for the GI50 with DLD1-WRN-KO cells and with SW48 cells were 6300 nM and 30 nM, respectively. The IC50 on WRN helicase came out at 40 nM.
In the case of `CCc1c(N2CCN(C(=O)c3ncccc3O)CC2)c(=O)n2nc(C3=CCOCC3)nc2n1CC(=O)Nc1cc(F)c(C(F)(F)F)nc1C` [Example 70, 2-(2-(3,6-dihydro-2H-pyran-4-yl)-5-ethyl-6-(4-(3-hydroxypicolinoyl)piperazin-1-yl)-7-oxo-[1,2,4]triazolo[1,5-a]pyrimidin-4(7H)-yl)-N-(5-fluoro-2-methyl-6-(trifluoromethyl)pyridin-3-yl)acetamide], the GI50 with DLD1-WRN-KO cells is greater than 10000 nM; in the test on SW48 cells it was 220 nM. Also, the IC50 on WRN helicase came out at 100 nM.
The corresponding values for `CCc1c(N2CCN(C(=O)c3ncccc3O)[C@H](C)C2)c(=O)n2nc(C3=CCOCC3)nc2n1CC(=O)Nc1ccc(C(F)(F)F)cc1` [Example 71, (R)-2-(2-(3,6-dihydro-2H-pyran-4-yl)-5-ethyl-6-(4-(3-hydroxypicolinoyl)-3-methylpiperazin-1-yl)-7-oxo-[1,2,4]triazolo[1,5-a]pyrimidin-4(7H)-yl)-N-(4-(trifluoromethyl)phenyl)acetamide] are greater than 10000 nM, 60 nM and 70 nM.
As to `CCc1c(N2CCN(C(=O)c3ncccc3O)CC2)c(=O)n2nc(C3=CCOCC3)nc2n1CC(=O)Nc1ccc(C(F)(F)F)cc1` [Example 72, 2-(2-(3,6-dihydro-2H-pyran-4-yl)-5-ethyl-6-(4-(3-hydroxypicolinoyl)piperazin-1-yl)-7-oxo-[1,2,4]triazolo[1,5-a]pyrimidin-4(7H)-yl)-N-(4-(trifluoromethyl)phenyl)acetamide], the GI50 with DLD1-WRN-KO cells was greater than 10000 nM; with SW48 cells it was 50 nM. Besides, the IC50 at WRN helicase came out at 50 nM.
`CCc1c(N2CCN(C(=O)c3ncnc(C)c3O)CC2)c(=O)n2nc(C3=CCOCC3)nc2n1CC(=O)Nc1ccc(C(F)(F)F)cc1` [Example 73, 2-(2-(3,6-dihydro-2H-pyran-4-yl)-5-ethyl-6-(4-(5-hydroxy-6-methylpyrimidine-4-carbonyl)piperazin-1-yl)-7-oxo-[1,2,4]triazolo[1,5-a]pyrimidin-4(7H)-yl)-N-(4-(trifluoromethyl)phenyl)acetamide]: the GI50 is greater than 10000 nM in the test on DLD1-WRN-KO cells and 200 nM in the test on SW48 cells. At WRN helicase, the IC50 came out at 70 nM.
Regarding `CCc1c(N2CCN(C(=O)c3nc(C)ccc3O)CC2)c(=O)n2nc(C3=CCOCC3)nc2n1CC(=O)Nc1ccc(C(F)(F)F)cc1` [Example 74, 2-(2-(3,6-dihydro-2H-pyran-4-yl)-5-ethyl-6-(4-(3-hydroxy-6-methylpicolinoyl)piperazin-1-yl)-7-oxo-[1,2,4]triazolo[1,5-a]pyrimidin-4(7H)-yl)-N-(4-(trifluoromethyl)phenyl)acetamide], the results for the GI50 in the test with DLD1-WRN-KO cells and with SW48 cells were greater than 10000 nM and 70 nM, respectively. Also, on WRN helicase, the IC50 was 50 nM.
In the same order, the values of `CCc1c(N2CCN(C(=O)c3nccc(C)c3O)CC2)c(=O)n2nc(C3=CCOCC3)nc2n1CC(=O)Nc1ccc(C(F)(F)F)cc1` [Example 75, 2-(2-(3,6-dihydro-2H-pyran-4-yl)-5-ethyl-6-(4-(3-hydroxy-4-methylpicolinoyl)piperazin-1-yl)-7-oxo-[1,2,4]triazolo[1,5-a]pyrimidin-4(7H)-yl)-N-(4-(trifluoromethyl)phenyl)acetamide] are greater than 10000 nM, 80 nM and 50 nM.
The corresponding values for `CCc1c(N2CCN(C(=O)c3ncccc3O)CC2)c(=O)n2nc(-c3cccnc3)nc2n1CC(=O)Nc1ccc(C(F)(F)F)cc1C` [Example 76, 2-(5-ethyl-6-(4-(3-hydroxypicolinoyl)piperazin-1-yl)-7-oxo-2-(pyridin-3-yl)-[1,2,4]triazolo[1,5-a]pyrimidin-4(7H)-yl)-N-(2-methyl-4-(trifluoromethyl)phenyl)acetamide] are greater than 10000 nM, 190 nM and 80 nM.
With `CCc1c(N2CCN(C(=O)c3ncccc3O)CC2)c(=O)n2nc(-c3ccc(C)nc3)nc2n1CC(=O)Nc1ccc(C(F)(F)F)cc1C` [Example 77, 2-(5-ethyl-6-(4-(3-hydroxypicolinoyl)piperazin-1-yl)-2-(6-methylpyridin-3-yl)-7-oxo-[1,2,4]triazolo[1,5-a]pyrimidin-4(7H)-yl)-N-(2-methyl-4-(trifluoromethyl)phenyl)acetamide], the results for the GI50 in the test with DLD1-WRN-KO cells and with SW48 cells were greater than 10000 nM and 380 nM, respectively. In addition, the IC50 at WRN helicase is 210 nM.
In the same order, the values of `CCc1c(N2CCN(C(=O)c3nccc(Cl)c3O)CC2)c(=O)n2nc(C3=COCCO3)nc2n1CC(=O)Nc1ccc(C(F)(F)F)cc1C` [Example 78, 2-(6-(4-(4-chloro-3-hydroxypicolinoyl)piperazin-1-yl)-2-(5,6-dihydro-1,4-dioxin-2-yl)-5-ethyl-7-oxo-[1,2,4]triazolo[1,5-a]pyrimidin-4(7H)-yl)-N-(2-methyl-4-(trifluoromethyl)phenyl)acetamide] are greater than 10000 nM, 300 nM and 80 nM.
For the molecule `CCc1c(N2CCN(C(=O)c3nccc(Cl)c3O)CC2)c(=O)n2nc(C3=COCCO3)nc2n1CC(=O)Nc1ccc(C(F)(F)F)c(F)c1C` [Example 79, 2-(6-(4-(4-chloro-3-hydroxypicolinoyl)piperazin-1-yl)-2-(5,6-dihydro-1,4-dioxin-2-yl)-5-ethyl-7-oxo-[1,2,4]triazolo[1,5-a]pyrimidin-4(7H)-yl)-N-(3-fluoro-2-methyl-4-(trifluoromethyl)phenyl)acetamide], the GI50 in the test on DLD1-WRN-KO cells was greater than 10000 nM; in the test with SW48 cells, 500 nM. Moreover, at WRN helicase, the IC50 is 40 nM.
The corresponding values for `CCc1c(N2CCN(C(=O)c3ncccc3O)CC2)c(=O)n2nc(N3CCN(CC(=O)O)CC3)nc2n1CC(=O)Nc1ccc(C(F)(F)F)cc1Cl` [Example 82, 2-(4-(4-(2-((2-chloro-4-(trifluoromethyl)phenyl)amino)-2-oxoethyl)-5-ethyl-6-(4-(3-hydroxypicolinoyl)piperazin-1-yl)-7-oxo-4,7-dihydro-[1,2,4]triazolo[1,5-a]pyrimidin-2-yl)piperazin-1-yl)acetic acid] are greater than 10000 nM, 7720 nM and 280 nM.
In the same order, the values of `CCc1c(N2CCN(C(=O)c3ncccc3O)CC2)c(=O)n2nc(C3=CCCCO3)nc2n1CC(=O)Nc1ccc(C(F)(F)F)cc1C` [Example 83, 2-(2-(3,4-dihydro-2H-pyran-6-yl)-5-ethyl-6-(4-(3-hydroxypicolinoyl)piperazin-1-yl)-7-oxo-[1,2,4]triazolo[1,5-a]pyrimidin-4(7H)-yl)-N-(2-methyl-4-(trifluoromethyl)phenyl)acetamide] are greater than 10000 nM, 60 nM and 90 nM.

For the origin of these results see patent US11878973B2, “Bicyclic compounds and their uses” (NOVARTIS AG, priority 2021, dated 2024).
